Laboratory results from patent publication US11510886B2, “Metformin amino acid compounds and methods of using the same” (Laboratorios Silancs S.A. DE C.V., priority 2016, dated 2022).
Where two headings read alike, the source gives them in different places.

Tests used:
[1] = test system: blood glucose level; experiment: Effect of metformin compounds on the glucokinetic profile after oral glucose overload; format: in vivo, Rat; settings: for Blood glucose level, 3 h post-glucose overload: *p<0.05, **p<0.01 vs vehicle
[2] = test system: rat model of streptozotocin-induced diabetes; settings: about 18 hours after last administration, fasted; Dunnet test
[3] = rat, in vivo, po, 250 mg/kg
[4] = test system: rat model of streptozotocin-induced diabetes; experiment: Blood glucose levels in rat model of streptozotocin-induced diabetes, 14 days oral; settings: for Blood glucose levels before TI/RI administration, Day −1: STZ-diabetic rats, before first TI/RI administration, n.d. = all values beyond ULOD of glucometer (600 mg/dl), § n=1, ¢ n=2; for Blood glucose levels before TI/RI administration, Day −1 / Blood glucose levels before TI/RI administration, Day −3 (before STZ administration): mean ± SD; for Blood glucose levels before TI/RI administration, Day −3 (before STZ administration): rats, baseline before STZ and before first TI/RI administration
[5] = for Body weight (g) On administration day / Body weight (g) On distribution day / Body weight (g) On first administration day: Mean ± SD; for Body weight (g) On distribution day: before dosing
[6] = terms of European Pharmacopeia 7.0 section 5.11
[7] = STZ-diabetic male rats, mean ± SD; for Absolute body weight, Day −3 (before STZ administration): baseline before STZ and before first TI/RI administration; for Absolute body weight, Day −1 / Absolute body weight, Day −2 (distribution of groups): before first TI/RI administration
[8] = diabetic rats, 14 days daily oral
[9] = test system: GLUT4; experiment: GPBP-1 and GLUT4 distribution in C2C12 cells (FIGS. 77 and 78); format: cell-based, Mice
Procedure: FIG. 77. Effects of no treatment, insulin, SLN1, SLN1 and insulin, SLN10, and SLN10 and insulin on GPBP-1 and GLUT-4 distribution in non-fused C2C12 cells after a 30 minute treatment.
FIG. 78. C2C12 cells that expressed GLUT4-GFP constitutively were incubated with SLN1 or SLN10 10 mM, or with the corresponding vehicle (control), and GLUT4 distribution was analyzed by using immunofluorescence and confocal microscopy.

[10] = test system: GPBP, LKB1/STRADα/MO25, AMPK, AS160; experiment: In vitro phosphorylation of GPBP with LKB1 complex, AMPK and AS160; settings: LKB1 complex without GPBP
[11] = test system: C2C12 myotubes; experiment: Glucose in C2C12 myotubes cultured with M1 macrophage conditioned medium; format: cell-based, Mice; settings: macrophages treated with 10 mM; glucose adjusted to 100 mg/100 mL (FIG. 95)
Procedure: FIG. 95. C2C12 myotubes, treated with a conditioned RAW264.7 M1 macrophages medium (stimulated with LPS and IFN-γ [M1]), accumulate glucose in the culture medium: SLN compounds reduce the “hyperglycemic” effect of the M1 medium. […]; then, the culture media were collected, and their glucose concentration adjusted to 100 mg/100 mL and used to culture C2C12 myoblasts that had been previously differentiated to myotubes in DMEM supplemented with 2% horse serum for 5 days. The glucose concentration in myotubes was determined at several times with a Glucocard (Arkray). C2C12 myotubes, cultured with conditioned media of non-stimulated (cells) macrophages, or similarly stimulated but not treated with a SLN (M1), were used as controls. The initial glucose levels (time 0) are used as a reference (100%) in each of the series.
[…]. Then the culture media were collected, their glucose concentration adjusted to 100 mg/100 mL and used to culture C2C12 myoblasts that had been previously differentiated to myotubes in DMEM supplemented with 2% horse serum for 5 days. The glucose concentration of the myotube cultures was determined at different times with Glucocard (Arkray). The controls used were the C2C12 cultured with media conditioned with no stimulated macrophages (cells) or with M1 conditioned media. The initial glucose levels (time 0) were used as a reference (100%) in each series.

[12] = rat, 750 mg/kg referred to metformin base, mean ± SD, *p<0.05 vs vehicle
[13] = rat, 750 mg/kg referred to metformin base, mean ± SD
[14] = Groups L-U, 750 mg/kg, first column of this head
[15] = Groups L-U, 750 mg/kg, second column of this head

| Compound | Blood glucose level, 0.25 h post-glucose overload [1, 12] [mg/dL] | Blood glucose level, 0.5 h post-glucose overload [1, 13] [mg/dL] | Blood glucose level, 2 h post-glucose overload [1, 13] [mg/dL] | Blood glucose level, 3 h post-glucose overload [1, 13] [mg/dL] | Blood glucose level, 4 h post-glucose overload [1, 12] [mg/dL] | Blood glucose level, 6 h post-glucose overload [1, 13] [mg/dL] | Blood glucose level, pre-glucose overload [1, 12] [mg/dL] | plasma glucose levels at the time of sacrifice [2] | AUC(0-24) [3] [µg·h/mL] | Cmax [3] [ng/mL] | Metformin base concentration in plasma, 0.5 h post-administration [3] [µg/mL] | Metformin base concentration in plasma, 1 h post-administration [3] [µg/mL] | Metformin base concentration in plasma, 2 h post-administration [3] [µg/mL] | Metformin base concentration in plasma, 4 h post-administration [3] [µg/mL] | Metformin base concentration in plasma, 8 h post-administration [3] [µg/mL] | Metformin base concentration in plasma, 24 h post-administration [3] [µg/mL] | Blood glucose levels before TI/RI administration, Day −1 [4] | Blood glucose levels before TI/RI administration, Day −3 (before STZ administration) [4] [mg/dL] | Body weight (g) On administration day ([5]; Groups B-K, 250 mg/kg) [g] | GLUT4 distribution [9] | further results |
| --- | --- | --- | --- | --- | --- | --- | --- | --- | --- | --- | --- | --- | --- | --- | --- | --- | --- | --- | --- | --- | --- |
| CN(C)C(=N)NC(=N)N.NC(=O)C[C@H](N)C(=O)O [Metformin asparaginate, metformin asparaginate] | 94.50 ± 24.31 | 93.75 ± 19.14 | 80.00 ± 10.68 | 86.50 ± 2.65 | 87.00 ± 8.60 | 78.50 ± 16.03 | 86.50 ± 14.62 | significantly higher | 153.76 | 16270 | 10.72 ± 2.33 | 8.40 ± 1.12 | 9.74 ± 1.24 | 16.27 ± 2.89 | 7.56 ± 1.49 | 0.39 ± 0.13 | 573.00^§ ± n.d.^§ mg/dL | 116.33 ± 5.51 | 191.98 ± 10.26 |  | blood glucose level vs vehicle, after the oral glucose overload ([1]; 750 mg/kg for five days, glucose 3 g/kg, isolated time points 0.25-4 hours, Dunn's test): statistically significant decreases; Body weight (g) On distribution day ([5]; Groups B-K, 250 mg/kg): 186.85 ± 11.32 g; Body weight (g) On distribution day ([5]; Groups L-U, 750 mg/kg): 188.40 ± 10.50 g; Body weight (g) On first administration day [5, 14]: 201.60 ± 5.61 g; Body weight (g) On first administration day [5, 15]: 196.93 ± 10.40 g; Physical form (hygroscopicity) [6]: Deliquescent; Absolute body weight, Day −3 (before STZ administration) [7]: 233.47 ± 15.23 g; Absolute body weight, Day −1 [7]: 209.73 ± 12.66 g; Absolute body weight, Day −2 (distribution of groups) [7]: 214.13 ± 12.67 g |
| CC(C)[C@H](N)C(=O)O.CN(C)C(=N)NC(=N)N [Metformin valinate, metformin valinate] | 102.50 ± 12.07 | 101.00 ± 14.90 | 97.00 ± 14.54 | 93.50 ± 18.91 | 86.50 ± 10.15 | 92.75 ± 5.56 | 90.25 ± 3.86 | significantly higher | 123.05 | 13700 | 8.75 ± 0.50 | 11.56 ± 2.71 | 12.90 ± 2.38 | 13.70 ± 2.55 | 4.79 ± 0.38 | 0.21 ± 0.09 | 592.00^§ ± n.d.^§ mg/dL | 120.00 ± 1.73 | 193.85 ± 7.65 |  | Blood glucose level, 1 h post-glucose overload ([1]; rat, 750 mg/kg referred to metformin base, 1 h post-glucose overload, mean ± SD, *p<0.05 vs vehicle): 100.25 ± 15.44 mg/dL; blood glucose levels 2 hours after administration on day 2 vs diabetic animals treated with vehicle ([4]; diabetic rats, 250 mg/kg as metformin base): significantly lower blood glucose levels; mortality [8]: found dead on the day 9 of study; macroscopic necropsy findings ([5]; 750 mg/kg for five days): small additional lobe; Body weight (g) On distribution day ([5]; Groups B-K, 250 mg/kg): 186.67 ± 11.37 g; Body weight (g) On distribution day ([5]; Groups L-U, 750 mg/kg): 190.28 ± 6.26 g; Body weight (g) On first administration day [5, 14]: 206.48 ± 10.52 g; Body weight (g) On first administration day [5, 15]: 194.90 ± 4.71 g; Physical form (hygroscopicity) ([6]; listed as 14. VALINE): Hygroscopic solid; Physical form (hygroscopicity) ([6]; listed as valine): hygroscopic; Absolute body weight, Day −3 (before STZ administration) [7]: 233.50 ± 9.71 g; Absolute body weight, Day −1 [7]: 213.90 ± 16.31 g; Absolute body weight, Day −2 (distribution of groups) [7]: 217.43 ± 14.43 g |
| CN(C)C(=N)N=C(N)N [metformin, 3-(diaminomethylidene)-1,1-Dimethylguanidine] |  |  |  |  |  |  |  |  |  |  |  |  |  |  |  |  |  |  |  | levels lower than insulin | LKB1 autophosphorylation and STRADα phosphorylation [10]: trigger a discrete LKB1 autophosphorylation |
| Metformin glycinate |  |  |  |  |  |  |  |  |  |  |  |  |  |  |  |  |  |  |  | very intense accumulation of GLUT4 in the perinuclear region and in the plasma membrane | glucose concentration in myotubes kept in M1 macrophage-conditioned medium [11]: kept values at “normoglycemic” levels |
| insulin: insulin, comparator for GLUT4 distribution |  |  |  |  |  |  |  |  |  |  |  |  |  |  |  |  |  |  |  | GLUT4 distribution to the cell membrane increased |  |
